Test system: P388
Assay: Compound was tested for antitumor activity against lymphocytic leukemia P388 cells in mice
Type: functional, Mus musculus
Conditions: not given

| SMILES | Log 1/C |
| --- | --- |
| COc1cc2c(c(OC)c1OC)-c1ccc(OC)c(=O)cc1[C@@H](N(C)C)CC2 | 4.03 |

Test system: not listed separately
Assay: physchem
Conditions: octanol/water
Description: Partition coefficient (logP)

| SMILES | logP |
| --- | --- |
| CN[C@H]1CCc2cc(OC)c(OC)c(OC)c2-c2ccc(SC)c(=O)cc21 | 2.22 |
| CCOC(=O)N[C@H]1CCc2cc(OC)c(OC)c(OC)c2-c2ccc(SC)c(=O)cc21 | 3.12 |
| COc1cc2c(c(OC)c1OC)-c1ccc(SC)c(=O)cc1[C@@H](NC(=O)C(F)(F)F)CC2 | 2.99 |
| COc1cc2c(c(OC)c1OC)-c1ccc(OC)c(=O)cc1[C@@H](NC(=O)c1ccccc1)CC2 | 2.94 |
| COc1cc2c(c(OC)c1OC)-c1ccc(SC)c(=O)cc1[C@@H](N)CC2 | 1.73 |
| COc1cc2c(c(OC)c1OC)-c1ccc(SC)c(=O)cc1[C@@H](NO[C@H]1[C@H](OC(C)=O)[C@@H](OC(C)=O)[C@H](OC(C)=O)O[C@@H]1COC(C)=O)CC2 | 4.61 |
| COC(=O)C(N)CCCC/N=c1\ccc2c(cc1O)[C@@H](NC(C)=O)CCc1cc(OC)c(OC)c(OC)c1-2 (stereo not given in full) | -2.1 |
| COc1cc2c(c(OC)c1OC)-c1ccc(SC)c(=O)cc1[C@@H](NC1C(CO)OC(O)C(O)C1O)CC2 (stereo not given in full) | 1.25 |
| COc1cc2c(c(OC)c1OC)-c1ccc(OC)c(=O)cc1[C@@H](NC=O)CC2 | 1.02 |
| COc1cc2c(c(OC)c1OC)-c1ccc(SC)c(=O)cc1[C@@H](NC1COC(O)C(O)C1O)CC2 (stereo not given in full) | 1.4 |
| COc1cc2c(c(OC)c1OC)-c1cc/c(=N\Cc3ccccc3)c(O)cc1[C@@H](NC(C)=O)CC2 | 2.14 |
| COc1cc2c(c(OC)c1OC)-c1ccc(OC)c(=O)cc1[C@@H](NC(=O)CF)CC2 | 1.19 |
| CNc1ccc2c(cc1=O)[C@@H](NC(C)=O)CCc1cc(OC)c(OC)c(OC)c1-2 | 0.58 |
| COc1cc2c(c(OC)c1OC)-c1ccc(OC)c(=O)cc1[C@@H](NC(C)=O)CC2 [COLCHICINE] | 1.03 |
| COc1cc2c(c(OC)c1OC)-c1ccc(OC)c(=O)cc1[C@@H](N)CC2 [DEACETYLCOLCHICINE] | 1.1 |
| CN[C@H]1CCc2cc(OC)c(OC)c(OC)c2-c2ccc(OC)c(=O)cc21 [DEMECOLCINE] | 1.53 |
| COc1cc2c(c(OC)c1OC)-c1ccc(SC)c(=O)cc1[C@@H](NC(C)=O)CC2 [THIOCOLCHICINE] | 1.66 |

Now from value to molecule:

| logP | SMILES |
| --- | --- |
| -0.58 | COc1cc2c(c(OC)c1OC)-c1ccc(S(C)(=O)=O)c(=O)cc1[C@@H](NC(C)=O)CC2 |
| 3.53 | COc1cc2c(c(OC)c1OC)-c1ccc(SC)c(=O)cc1[C@@H](NC(=O)NCCCl)CC2 |
| 1.71 | COc1cc2c(c(OC)c1OC)-c1ccc(OC)c(=O)cc1[C@@H](NC(=O)CCl)CC2 |
| 2.96 | COc1cc2c(c(OC)c1OC)-c1ccc(OC)c(=O)cc1[C@@H](NC(=O)c1ccc([N+](=O)[O-])cc1)CC2 |
| 2.34 | COc1cc2c(c(OC)c1OC)-c1ccc(SC)c(=O)cc1[C@@H](NC(=O)CCl)CC2 |
| 0.93 | COc1ccc2c(c1OC)-c1ccc(OC)c(=O)cc1[C@@H](NC(C)=O)CC2 |
| 1.5 | COc1cc2c(c(OC)c1OC)-c1ccc(SC)c(=O)cc1[C@@H](NC(=O)CO)CC2 |
| 2.36 | COc1cc2c(c(OC)c1OC)-c1ccc(OC)c(=O)cc1[C@@H](NC(=O)C(F)(F)F)CC2 |
| -0.53 | COc1cc2c(c(OC)c1OC)-c1ccc([S+](C)[O-])c(=O)cc1[C@@H](NC(C)=O)CC2 (stereo not given in full) |
| 0.97 | COc1cc2c(c(OC)c1OC)-c1ccc(S(=O)(=O)Cc3ccccc3)c(=O)cc1[C@@H](NC(C)=O)CC2 |
| 3.21 | COc1cc2c(c(OC)c1OC)-c1ccc(SCc3ccccc3)c(=O)cc1[C@@H](NC(C)=O)CC2 |
| 2.07 | COc1cc2c(c(OC)c1OC)-c1ccc(OC)c(=O)cc1[C@@H](N(C)C)CC2 |

— ChEMBL document CHEMBL1121792, “Quantitative structure-activity relationships of colchicines against P388 leukemia in mice” (J Med Chem, 1981)
